# In patent US20120046321A1, “METHODS OF TREATING ATRIAL FIBRILLATION WITH P38 INHIBITOR COMPOUNDS” (INTERMUNE, INC., priority 2005, published 2012):
# “Also recorded” adds a separate entry of the source.
# How the values were obtained:
# Type in all cases: in vivo, canine
# IL-6 = assay: Western blot of atrial tissue; details: 3 groups
# [1] = tested on: canines with ventricular tachypacing (VTP)-induced congestive heart failure (CHF); assay: Open-chest electrophysiology and epicardial mapping (ERP, CV, conduction heterogeneity)
# Text: Briefly, 15 adult mongrel canines (weight 20 to 32 kgs) were divided into 3 groups (n=5 in each group) as follows: Group 1: Normal; Group 2: CHF canines not treated with PFD (or CHF); and Group 3: CHF canines treated with PFD (or CHF+PFD). […] The CHF and CHF+PFD canines underwent placement of a permanent single-chamber pacemaker with the pacing lead positioned in the right ventricular apex followed by radiofrequency catheter ablation of the AV junction to create complete heart block. Canines in the CHF and CHF+PFD groups underwent 3 weeks of VTP at a rate of 220 bpm. Oral PFD (800 mg three times a day) (InterMune, Brisbane, Calif.) was started 2 days prior to the initiation of VTP and was given for the full duration of the pacing period. During the follow-up EP study, each animal was anesthetized with isoflurane and mechanically ventilated. The pacemaker rate was set at 80 bpm at twice diastolic threshold for the entire EP study. The chest was opened with a midline sternotomy. A pericardial cradle was created, and 4 custom-made, epicardial, high-density plaques (left atrial free wall (LAFW); left atrial Bachmann's bundle (LABB); right atrial free wall (RAFW); right atrial Bachmann's bundle (RABB)) were placed over the atria (512 electrodes with an inter-electrode distance of 2.5 mm), similar to the setup described in Verheule S, et al., Circulation 107:2615-22 (2003) and Sih H J, et al. J Am Coll Cardiol. 36:924-31 (2000). Unipolar electrode signals were acquired (sampling rate 2 kHz) and stored with the UnEmap mapping system (University of Auckland, New Zealand). Electrode pairs on the epicardial plaque were used for bipolar stimulation at twice diastolic threshold. Effective refractory periods (ERPs) were measured at 12 atrial sites (6 in LA, 6 in RA) using the single extrastimulus protocol (S1S2) at an 8-beat drive train basic cycle lengths (BCLs) of 200, 300, and 400 ms. During stimulation of the contralateral Bachmann's bundle, conduction velocity (CV) was calculated between pairs of plaque electrodes perpendicular to the activation wavefront with a custom-written software. Verheule S, et al., Am J Physiol Heart Circ Physiol. 2004; 287:H634-44; and Bayly P V, et al., IEEE Trans Biomed Eng. 1998; 45:563-71. Used as a marker of conduction heterogeneity (Verheule S, et al., Am J Physiol Heart Circ Physiol. 2004; 287:H634-44; Bayly P V, et al., IEEE Trans Biomed Eng. 1998; 45:563-71; and Ausma J, et al., Circulation. 1997; 96:3157-63), the phase difference (ms/mm) was defined as the average difference in activation time between a plaque electrode from all of its neighboring electrodes normalized by the inter-electrode distance. Frequency histograms were constructed for the phase differences within an atrial region. The histograms were summarized as the median phase (P50), and the 5th and 95th percentile phase, or P5 and P95 of the distribution, respectively. Two measures were derived to quantify conduction heterogeneity: 1) absolute conduction heterogeneity, defined as P95-P5 (P95-5), and 2) conduction heterogeneity index, defined as the absolute conduction heterogeneity normalized by the median phase, or P95-5/P50.
# [2] = tested on: matrix metalloproteinase (MMP)-9; assay: Western blot of atrial tissue; details: active form 88 kDa, CHF+PFD vs CHF
smiles,measurement,setting,value
"Cc1ccc(=O)n(-c2ccccc2)c1 [PFD, 5-methyl-1-phenyl-2-(1H)-pyridone]",Expression of IL-6,IL-6,unchanged; also recorded: not markedly different
same,LA CVs compared with the untreated group,[1]; 3 pacing BCLs,non-statistically significant increase
same,LA ERPs,"[1]; BCLs 200, 300, 400 ms, p=NS vs untreated, p<0.03 vs Normal",further lengthening
same,Conduction heterogeneity index (P95-5/P50) in the LA,"[1]; all BCLs, p<0.02 at 300 and 400 ms",reduction
same,Absolute conduction heterogeneity (P95-5) in the LA,"[1]; all BCLs, p<0.04 at 400 ms",reduction
same,Absolute conduction heterogeneity (P95-5) in the RA,[1]; p<0.003 at 400 ms,decrease
same,Conduction heterogeneity index (P95-5/P50) in the RA,[1]; p<0.003 at 400 ms,decrease
same,Local conduction heterogeneity in isochronal activation maps,"[1]; pacing CL 300 ms, 4 atrial plaques",less
same,Expression of MMP-9,[2],downregulation; also recorded: reduced
